According to ChEMBL document CHEMBL3763125, “Discovery of novel phenoxazinone derivatives as DKK1/LRP6 interaction inhibitors: Synthesis, biological evaluation and structure-activity relationships” (Bioorg Med Chem, 2016):
pIC50: −log10 of the molar value. Active and inactive are the calls of the source. The rule behind the calls is not given here.

Columns and labels:
Type in all cases: cell-based
[1] = target: T1, Low-density lipoprotein receptor-related protein 6 (Homo sapiens, UniProt O75581); assay: Binding affinity to LRP6 in human SH-SY5Y cells assessed as DKK1/LRP6 interaction-mediated increase in beta-catenin level at 10 uM incubated for 1 hr using compound pre-treated DKK1 conditioned media by Western blot analysis
[2] = system: SH-SY5Y; assay: Cytotoxicity against human SH-SY5Y cells at 10 to 100 uM after 24 hrs by MTT assay
[3] = target: T1, Low-density lipoprotein receptor-related protein 6; assay: Binding affinity to human LRP6 expressed in HEK293 cells assessed as inhibition of DKK1/LRP6 interaction using compound pre-treated DKK1 conditioned media after 2 hrs by fluorescence microscopic analysis
[4] = target: T1, Low-density lipoprotein receptor-related protein 6; assay: Binding affinity to LRP6 in human SH-SY5Y cells assessed as inhibition of DKK1/LRP6 interaction-mediated tau phosphorylation at serine 396 at 10 uM incubated for 1 hr using compound pre-treated DKK1 conditioned media by Western blot analysis

T1 sequence (O75581 whole entry): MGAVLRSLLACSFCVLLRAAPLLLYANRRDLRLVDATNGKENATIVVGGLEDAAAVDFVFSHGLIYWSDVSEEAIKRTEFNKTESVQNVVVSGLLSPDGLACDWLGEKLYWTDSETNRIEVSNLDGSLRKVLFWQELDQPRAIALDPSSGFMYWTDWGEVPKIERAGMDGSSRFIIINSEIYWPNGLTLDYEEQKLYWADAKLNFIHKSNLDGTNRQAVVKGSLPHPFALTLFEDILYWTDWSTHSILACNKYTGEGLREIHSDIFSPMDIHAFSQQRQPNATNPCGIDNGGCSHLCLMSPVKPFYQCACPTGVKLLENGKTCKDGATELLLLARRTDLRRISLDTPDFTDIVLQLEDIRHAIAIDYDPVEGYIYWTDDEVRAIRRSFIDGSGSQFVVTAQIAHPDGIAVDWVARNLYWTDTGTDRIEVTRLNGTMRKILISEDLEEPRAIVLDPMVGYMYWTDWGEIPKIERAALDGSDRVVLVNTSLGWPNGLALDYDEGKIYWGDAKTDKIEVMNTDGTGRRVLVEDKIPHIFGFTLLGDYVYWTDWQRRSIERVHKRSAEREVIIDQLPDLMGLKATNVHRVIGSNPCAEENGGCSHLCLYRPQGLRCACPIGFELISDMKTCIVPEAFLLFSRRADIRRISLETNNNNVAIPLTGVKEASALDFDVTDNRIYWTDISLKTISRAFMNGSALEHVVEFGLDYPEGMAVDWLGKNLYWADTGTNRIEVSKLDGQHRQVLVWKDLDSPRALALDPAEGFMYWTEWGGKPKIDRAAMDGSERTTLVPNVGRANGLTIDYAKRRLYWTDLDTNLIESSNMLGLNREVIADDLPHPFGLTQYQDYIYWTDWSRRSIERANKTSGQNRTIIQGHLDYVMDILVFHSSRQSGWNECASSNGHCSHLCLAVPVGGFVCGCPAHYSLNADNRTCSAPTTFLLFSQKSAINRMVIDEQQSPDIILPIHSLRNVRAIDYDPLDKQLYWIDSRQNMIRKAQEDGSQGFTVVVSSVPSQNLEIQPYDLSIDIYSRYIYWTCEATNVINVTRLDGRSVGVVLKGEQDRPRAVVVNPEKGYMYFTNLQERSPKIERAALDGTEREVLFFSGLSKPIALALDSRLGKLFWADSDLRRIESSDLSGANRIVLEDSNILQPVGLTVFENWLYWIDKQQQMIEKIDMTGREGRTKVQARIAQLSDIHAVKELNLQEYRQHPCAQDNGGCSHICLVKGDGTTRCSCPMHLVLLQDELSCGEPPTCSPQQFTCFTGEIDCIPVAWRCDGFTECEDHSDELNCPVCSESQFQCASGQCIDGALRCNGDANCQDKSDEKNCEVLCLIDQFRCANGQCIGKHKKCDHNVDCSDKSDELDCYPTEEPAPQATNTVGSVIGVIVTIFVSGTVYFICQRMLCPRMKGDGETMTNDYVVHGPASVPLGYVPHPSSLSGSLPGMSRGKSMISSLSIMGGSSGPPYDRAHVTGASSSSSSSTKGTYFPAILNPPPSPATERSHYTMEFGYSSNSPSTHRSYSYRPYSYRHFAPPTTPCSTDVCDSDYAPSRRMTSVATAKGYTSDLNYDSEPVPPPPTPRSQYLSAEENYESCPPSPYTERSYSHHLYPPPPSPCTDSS

| SMILES | inhibition [1] | pIC50 [3] | inhibition [4] | Activity [2] |
| --- | --- | --- | --- | --- |
| COC(=O)c1c2nc3ccc(N(C)C)cc3oc-2c(O)c(=O)c1N1CCCCC1 | Active | 5.26 | Active | Non-toxic |
| CCCCOC(=O)c1c2nc3ccc(N(C)C)cc3oc-2c(O)c(=O)c1NCc1ccc(OC)cc1 | Active | 5.47 | – | Non-toxic |
| COC(=O)c1c2nc3ccc(N(C)C)cc3oc-2c(O)c(=O)c1NC1CCCC1 | Active | 5.34 | – | Non-toxic |
| COC(=O)c1c2nc3ccc(N(C)C)cc3oc-2c(O)c(=O)c1NC1CCCCC1 | Active | 5.39 | – | Non-toxic |
| COC(=O)c1c2nc3ccc(N(C)C)cc3oc-2c(O)c(=O)c1N1CCOCC1 | Active | 5.43 | – | Non-toxic |

Further lines, with some results ahead:

| inhibition [1] | pIC50 [3] | inhibition [4] | SMILES | Activity [2] |
| --- | --- | --- | --- | --- |
| Active | 5.36 | – | COC(=O)c1c2nc3ccc(N(C)C)cc3oc-2c(O)c(=O)c1NCc1ccc(OC)cc1 | Non-toxic |
| Active | 5.31 | Active | COC(=O)c1c2nc3ccc(N(C)C)cc3oc-2c(O)c(=O)c1Nc1ccc(Cl)c(Cl)c1 | Non-toxic |
| Active | 5.21 | – | COC(=O)c1c2nc3ccc(N(C)C)cc3oc-2c(O)c(=O)c1Nc1ccccc1 | Non-toxic |
| Active | 5.33 | – | COC(=O)c1c2nc3ccc(N(C)C)cc3oc-2c(O)c(=O)c1Nc1ccc(OC)cc1 | Non-toxic |
| Active | 5.28 | Active | COC(=O)c1c2nc3ccc(N(C)C)cc3oc-2c(O)c(=O)c1N | Non-toxic |
| Active | 5.42 | – | COC(=O)c1c2nc3ccc(N(C)C)cc3oc-2c(O)c(=O)c1Nc1ccc(C)cc1 | Non-toxic |
